This note sets out measurements from patent publication US10646488B2 (Araxes Pharma LLC, priority 2016, dated 2020).

The target in the first assay is T1, KRAS G12C 1-169, his-tagged protein, GDP-loaded (Homo sapiens, UniProt P01116, G12C).
T1 construct: KRAS G12C 1-169, his-tagged protein, GDP-loaded
The experiment in a line: Covalent binding (% modification) to KRAS G12C by mass spectrometry. Note: test concentration or dose not given here. As to conditions: covalent binding to KRAS G12C after a ten minute incubation period.
Take `C=CC(=O)N1C[C@H](C)N(c2nc(OCCN3CC(F)(F)C3)nc3c(F)c(-c4c(O)cccc4F)c(Cl)cc23)C[C@H]1C` (atropisomer, axis not shown) [Compound 83, 1-((2R,5S)-4-((R)-6-chloro-2-(2-(3,3-difluoroazetidin-1-yl)ethoxy)-8-fluoro-7-(2-fluoro-6-hydroxyphenyl)quinazolin-4-yl)-2,5-dimethyl-piperazin-1-yl) prop-2-en-1-one]: the Binding % result was “+ (+ indicates binding activity up to 50%)”.

For `C=CC(=O)N1CCN(c2nc(N3CC(N(C)C)C3)nc3c(F)c(-c4c(C)ccc5cn[nH]c45)c(Cl)cc23)C[C@H]1C` (atropisomer, axis not shown) [Compound 70, 1-((R)-4-((R)-6-chloro-2-(3-(dimethylamino)azetidin-1-yl)-8-fluoro-7-(6-methyl-1H-indazol-7-yl)quinazolin-4-yl)-2-methyl-piperazin-1-yl) prop-2-en-1-one], the Binding % entry is recorded as “+++ (+++ indicates binding activity greater than 90%)”.

As to `C=CC(=O)N1C[C@@H](C)N(c2nc(N3CC(N(C)C)C3)nc3c(F)c(-c4c(C)ccc5cn[nH]c45)c(Cl)cc23)[C@@H](C)C1` [Compound 44, 1-((3S,5R)-4-(6-chloro-2-(3-(dimethylamino)azetidin-1-yl)-8-fluoro-7-(6-methyl-1H-indazol-7-yl)quinazolin-4-yl)-3,5-dimethyl-piperazin-1-yl) prop-2-en-1-one], the Binding % result is recorded as “++ (++ indicates binding activity from 50 to 90%)”.

The same assay, now with this note: covalent binding to KRAS G12C after a three minute incubation period.
Take `C=CC(=O)N1C[C@H](C)N(c2nc(N3CC(N(CC)CC)C3)nc3c(F)c(-c4c(O)cccc4F)c(Cl)cc23)C[C@H]1C` (atropisomer, axis not shown) [Compound 175, 1-((2R,5S)-4-(6-chloro-2-(3-(diethylamino)azetidin-1-yl)-8-fluoro-7-((S)-2-fluoro-6-hydroxyphenyl)quinazolin-4-yl)-2,5-dimethyl-piperazin-1-yl) prop-2-en-1-one]: the Binding % result is listed as “+++ (+++ indicates binding activity greater than 90%)”.

`C=CC(=O)N1C[C@H](C)N(c2nc(N3CC(N(C)C)C3)nc3c(F)c(-c4ccc(Cl)cc4F)c(Cl)cc23)C[C@H]1C` [Compound 161, 1-((2R,5S)-4-(6-chloro-7-(4-chloro-2-fluoro-phenyl)-2-(3-(dimethylamino)azetidin-1-yl)-8-fluoroquinazolin-4-yl)-2,5-dimethyl-piperazin-1-yl) prop-2-en-1-one]: the Binding % result was “+ (+ indicates binding activity greater than 0% and up to 50%)”.

Turning to `C=CC(=O)N1C[C@H](C)N(c2nc(OCCCN(C)C)nc3c(F)c(-c4cc(O)cc5ccccc45)c(Cl)cc23)C[C@H]1C` [Compound 181, 1-((2R,5S)-4-(6-chloro-2-(3-(dimethylamino)propoxy)-8-fluoro-7-(3-hydroxy-naphthalen-1-yl)quinazolin-4-yl)-2,5-dimethyl-piperazin-1-yl) prop-2-en-1-one], the Binding % entry is given as “+++ (+++ indicates binding activity greater than 90%)”.

Take `C=CC(=O)N1C[C@H](C)N(c2nc(N3CC4(CCO4)C3)nc3c(F)c(-c4c(C)ccc5[nH]ncc45)c(Cl)cc23)C[C@H]1C` [Compound 193, 1-((2R,5S)-4-(6-chloro-8-fluoro-7-(5-methyl-1H-indazol-4-yl)-2-(1-oxa-6-azaspiro[3.3]heptan-6-yl)quinazolin-4-yl)-2,5-dimethyl-piperazin-1-yl) prop-2-en-1-one]: the Binding % result is “++ (++ indicates binding activity from 50 to 90%)”.

In the case of `C=CC(=O)N1C[C@H](C)N(c2nc(N3CC(N(C)CC)C3)nc3c(F)c(-c4c(C)ccc5[nH]ncc45)c(Cl)cc23)C[C@H]1C` [Compound 119, 1-((2R,5S)-4-(6-chloro-2-(3-(ethyl(methyl)amino)azetidin-1-yl)-8-fluoro-7-(5-methyl-1H-indazol-4-yl)quinazolin-4-yl)-2,5-dimethyl-piperazin-1-yl) prop-2-en-1-one], the Binding % result is “+ (+ indicates binding activity greater than 0% and up to 50%)”.

As to `C=CC(=O)N1C[C@H](C)N(c2nc(OCCCN3CCC(F)(F)C3)nc3c(F)c(-c4c(O)cccc4F)c(Cl)cc23)C[C@H]1C` [Compound 230, 1-((2R,5S)-4-(6-chloro-2-(3-(3,3-difluoropyrrolidin-1-yl)propoxy)-8-fluoro-7-(2-fluoro-6-hydroxyphenyl)quinazolin-4-yl)-2,5-dimethyl-piperazin-1-yl) prop-2-en-1-one], the Binding % entry is “++ (++ indicates binding activity from 50 to 90%)”.

On to `C=CC(=O)N1C[C@H](C)N(c2nc(N3CC4(CCCN(C5CC5)C4)C3)nc3c(F)c(-c4c(C)ccc5[nH]ncc45)c(Cl)cc23)C[C@H]1C` [Compound 182, 1-((2R,5S)-4-(6-chloro-2-(6-cyclopropyl-2,6-diazaspiro[3.5]nonan-2-yl)-8-fluoro-7-(5-methyl-1H-indazol-4-yl)quinazolin-4-yl)-2,5-dimethyl-piperazin-1-yl) prop-2-en-1-one], for which the Binding % entry is “+ (+ indicates binding activity greater than 0% and up to 50%)”.

Turning to `C=CC(=O)N1C[C@H](C)N(c2nc(Oc3ccnn3C)nc3c(F)c(-c4c(O)cccc4F)c(Cl)cc23)C[C@H]1C` [Compound 208, 1-((2R,5S)-4-(6-chloro-8-fluoro-7-(2-fluoro-6-hydroxyphenyl)-2-((1-methyl-1H-pyrazol-5-yl)oxy)quinazolin-4-yl)-2,5-dimethyl-piperazin-1-yl) prop-2-en-1-one], the Binding % entry is recorded as “+++ (+++ indicates binding activity greater than 90%)”.

As for `C=CC(=O)N1C[C@H](C)N(c2nc(OCCN(CC)CC)nc3c(F)c(-c4c(C)ccc5cn[nH]c45)c(Cl)cc23)C[C@H]1C` [Compound 136, 1-((2R,5S)-4-(6-chloro-2-(2-(diethylamino)ethoxy)-8-fluoro-7-(6-methyl-1H-indazol-7-yl)quinazolin-4-yl)-2,5-dimethyl-piperazin-1-yl) prop-2-en-1-one], the Binding % result is given as “+++ (+++ indicates binding activity greater than 90%)”.

With `C=CC(=O)N1C[C@H](C)N(c2nc(OCCn3ccnc3)nc3c(F)c(-c4c(O)cccc4F)c(Cl)cc23)C[C@H]1C` [Compound 232, 1-((2R,5S)-4-(2-(2-(1H-imidazol-1-yl)ethoxy)-6-chloro-8-fluoro-7-(2-fluoro-6-hydroxyphenyl)quinazolin-4-yl)-2,5-dimethyl-piperazin-1-yl) prop-2-en-1-one], the Binding % result is reported as “++ (++ indicates binding activity from 50 to 90%)”.

As for `C=CC(=O)N1C[C@H](C)N(c2nc(OCCCN(C)C)nc3c(F)c(-c4c(O)ccc5ccccc45)c(Cl)cc23)C[C@H]1C` [Compound 224, 1-((2R,5S)-4-(6-chloro-2-(3-(dimethylamino)propoxy)-8-fluoro-7-(2-hydroxy-naphthalen-1-yl)quinazolin-4-yl)-2,5-dimethyl-piperazin-1-yl) prop-2-en-1-one], the Binding % result is “++ (++ indicates binding activity from 50 to 90%)”.

As to `C=CC(=O)N1C[C@H](C)N(c2nc(N3CC(N(C)C4CC4)C3)nc3c(F)c(-c4c(O)cccc4F)c(Cl)cc23)C[C@H]1C` [Compound 106, 1-((2R,5S)-4-(6-chloro-2-(3-(cyclopropyl (methyl)amino)azetidin-1-yl)-8-fluoro-7-(2-fluoro-6-hydroxyphenyl)quinazolin-4-yl)-2,5-dimethyl-piperazin-1-yl) prop-2-en-1-one], the Binding % result is “++ (++ indicates binding activity from 50 to 90%)”.
